Source: ChEMBL document CHEMBL3525955, “Glucuronidation of the red clover isoflavone irilone by liver microsomes from different species and human UDP-glucuronosyltransferases” (Drug Metab Dispos, 2011)

What was measured:
Type in all cases: ADME
[1] = molecular target: T1, UDP-glucuronosyltransferase 1A8 (Homo sapiens, UniProt Q9HAW9); assay: Drug metabolism assessed as human recombinant UGT1A8-mediated irilone-O-5-monoglucuronide formation at 25 uM incubated for 5 mins prior to UDPGA addition measured after 90 mins by HPLC-DAD analysis; settings: recombinant enzyme, 1.5 h
T1 sequence (Q9HAW9 whole entry): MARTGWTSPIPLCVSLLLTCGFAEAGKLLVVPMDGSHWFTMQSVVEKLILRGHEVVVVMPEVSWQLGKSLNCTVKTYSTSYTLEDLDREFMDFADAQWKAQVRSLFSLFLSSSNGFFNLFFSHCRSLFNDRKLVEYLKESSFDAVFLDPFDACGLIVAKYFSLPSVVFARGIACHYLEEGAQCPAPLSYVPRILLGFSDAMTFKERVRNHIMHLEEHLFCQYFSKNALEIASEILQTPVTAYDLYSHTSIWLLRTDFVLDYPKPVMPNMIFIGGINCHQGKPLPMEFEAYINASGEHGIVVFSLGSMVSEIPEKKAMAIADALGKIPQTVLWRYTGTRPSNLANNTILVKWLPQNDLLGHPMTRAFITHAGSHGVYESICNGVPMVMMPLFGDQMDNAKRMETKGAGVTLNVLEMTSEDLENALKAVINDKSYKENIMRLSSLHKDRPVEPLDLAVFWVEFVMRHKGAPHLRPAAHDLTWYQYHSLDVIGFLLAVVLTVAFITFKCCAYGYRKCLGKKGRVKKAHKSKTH

[2] = molecular target: T2, UDP-glucuronosyltransferase 1A1 (Homo sapiens, UniProt P22309); assay: Drug metabolism assessed as human recombinant UGT1A1-mediated irilone-O-4'-monoglucuronide formation at 25 uM incubated for 5 mins prior to UDPGA addition measured after 90 mins by HPLC-DAD analysis; settings: recombinant enzyme, 1.5 h
T2 sequence (P22309 whole entry): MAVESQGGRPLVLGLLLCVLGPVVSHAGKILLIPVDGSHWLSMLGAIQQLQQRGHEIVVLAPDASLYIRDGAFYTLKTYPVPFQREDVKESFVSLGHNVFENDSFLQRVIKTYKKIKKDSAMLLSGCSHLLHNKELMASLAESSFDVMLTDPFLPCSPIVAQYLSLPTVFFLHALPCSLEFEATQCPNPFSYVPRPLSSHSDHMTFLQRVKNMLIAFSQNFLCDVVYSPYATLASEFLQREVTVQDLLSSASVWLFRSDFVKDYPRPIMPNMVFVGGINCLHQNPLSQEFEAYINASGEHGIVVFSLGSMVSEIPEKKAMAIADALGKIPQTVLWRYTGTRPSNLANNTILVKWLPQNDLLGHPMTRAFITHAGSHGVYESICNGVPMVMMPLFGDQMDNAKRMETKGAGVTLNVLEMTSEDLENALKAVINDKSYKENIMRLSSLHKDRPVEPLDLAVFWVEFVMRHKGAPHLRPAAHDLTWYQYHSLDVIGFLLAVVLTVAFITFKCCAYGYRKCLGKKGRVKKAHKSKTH

Liver microsome = assay: Drug metabolism in human liver microsomes assessed as IRI-O-4'-monoglucuronide formation incubated for 5 mins prior to UDPGA addition measured after 90 mins by Eadie-Hoftsee plot analysis; settings: 1.5 h
[3] = molecular target: T3, UDP-glucuronosyltransferase 1A7 (Homo sapiens, UniProt Q9HAW7); assay: Activity of human recombinant UGT1A7 assessed as intrinsic clearance incubated for 5 mins prior to UDPGA addition measured after 90 mins; settings: recombinant enzyme, 1.5 h
T3 sequence (Q9HAW7 whole entry): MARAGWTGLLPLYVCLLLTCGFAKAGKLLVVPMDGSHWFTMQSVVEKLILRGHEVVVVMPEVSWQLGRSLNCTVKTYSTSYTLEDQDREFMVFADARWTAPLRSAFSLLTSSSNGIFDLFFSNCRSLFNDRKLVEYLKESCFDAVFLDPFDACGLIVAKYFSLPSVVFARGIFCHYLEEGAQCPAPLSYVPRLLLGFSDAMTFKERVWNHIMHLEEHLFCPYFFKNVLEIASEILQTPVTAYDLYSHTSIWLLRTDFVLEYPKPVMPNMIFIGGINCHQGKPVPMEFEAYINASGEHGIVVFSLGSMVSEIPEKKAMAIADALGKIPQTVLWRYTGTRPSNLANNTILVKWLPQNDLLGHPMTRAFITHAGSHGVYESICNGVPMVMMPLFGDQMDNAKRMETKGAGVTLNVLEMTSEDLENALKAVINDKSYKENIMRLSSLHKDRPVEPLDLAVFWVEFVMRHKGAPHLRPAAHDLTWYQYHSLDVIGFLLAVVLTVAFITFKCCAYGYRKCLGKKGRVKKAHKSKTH

[4] = molecular target: T2, UDP-glucuronosyltransferase 1A1; assay: Substrate inhibition of human recombinant UGT1A1 assessed as IRI-O-5-monoglucuronide formation incubated for 5 mins prior to UDPGA addition measured after 90 mins by Eadie-Hoftsee plot analysis
[5] = molecular target: T3, UDP-glucuronosyltransferase 1A7; assay: Drug metabolism assessed as human recombinant UGT1A7-mediated irilone-O-5-monoglucuronide formation at 25 uM incubated for 5 mins prior to UDPGA addition measured after 90 mins by HPLC-DAD analysis; settings: recombinant enzyme, 1.5 h
[6] = molecular target: T4, UDP-glucuronosyltransferase 1A9 (Homo sapiens, UniProt O60656); assay: Activity of human recombinant UGT1A9 assessed as intrinsic clearance incubated for 5 mins prior to UDPGA addition measured after 90 mins; settings: recombinant enzyme, 1.5 h
T4 sequence (O60656 whole entry): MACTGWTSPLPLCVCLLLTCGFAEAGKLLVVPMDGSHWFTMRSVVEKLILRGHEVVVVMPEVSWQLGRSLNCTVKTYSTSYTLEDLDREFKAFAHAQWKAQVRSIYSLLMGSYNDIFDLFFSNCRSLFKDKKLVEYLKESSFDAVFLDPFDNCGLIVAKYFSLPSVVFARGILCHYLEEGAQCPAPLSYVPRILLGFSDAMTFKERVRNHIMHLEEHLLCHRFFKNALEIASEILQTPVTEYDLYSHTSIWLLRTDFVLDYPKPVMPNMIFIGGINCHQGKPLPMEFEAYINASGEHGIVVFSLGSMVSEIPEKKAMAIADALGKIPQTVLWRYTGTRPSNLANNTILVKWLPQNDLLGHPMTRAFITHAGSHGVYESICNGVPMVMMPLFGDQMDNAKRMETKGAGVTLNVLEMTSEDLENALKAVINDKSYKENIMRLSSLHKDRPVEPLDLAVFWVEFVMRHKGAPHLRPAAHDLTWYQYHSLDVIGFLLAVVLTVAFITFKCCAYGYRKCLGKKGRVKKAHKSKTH

`O=c1c(-c2ccc(O)cc2)coc2cc3c(c(O)c12)OCO3` was tested, and the Drug metabolism [1] was “metabolite_detected”, the Drug metabolism [2] was “metabolite_detected” and the Km (Liver microsome) was 64.7 µM. It also gave a Vmax (Liver microsome) of 0.34 nmol/mg/min, a CL [3] of 3900 µL/min/mg and a Ki [4] of 8.5 µM. For the same compound, the Drug metabolism [5] was “metabolite_detected” and the CL [6] was 53300 µL/min/mg.
